The values below come from patent US5747536A, “Pharmaceutical composition comprising L-carnitine or derivative thereof and trihydroxy or tetrahydroxystilbene” (Sigma-Tau Industrie Farmaceutiche Riunite S.p.A., priority 1995, dated 1998).

Molecules are shown by their SMILES.

Assay [1] deals with platelet-rich plasma (PRP). Description: Platelet aggregation induced by collagen in platelet-rich plasma, photometric (Born). It is filed as cell-based, human (volunteers). The note with it: collagen 2.5 ng/ml, 10 minutes of incubation. The method, then: Platelet-rich plasma (PRP) was obtained from the blood of volunteers by centrifuging the plasma at 145 x g for 5 min at 22° C. The number of platelets was determined using a CA 580A (Delcon) Platelet Counter. The number of platelets was brought down to a fixed value of […] by adding platelet-poor plasma (PPP). PPP was obtained by centrifuging blood at 1600 x g for 10 min at 22° C.
Platelet aggregation was determined photometrically (Born G.V.R., Nature 194, 927, 1962) using an Elvi 840 aggregometer in plastic test tubes under continual stirring at 1000 rpm. The maximum light transmission (100%) was measured with PPP readings, whereas 0% transmission was measured with PRP readings.
The degree of aggregation of PRP induced by the aggregating agent (collagen at 2.5 to 5 ng/ml) was calculated as a percentage of maximum transmission of light obtained with PPP using […] PRP samples.
Aggregation was measured in basal conditions and after 10 minutes of incubation with L-carnitine, resveratrol, grape extract, and combinations of these preparations.

The test system of assay [2] is atherosclerotic vascular lesions (aorta). Briefly: Experimental atherosclerosis induced by atherogenic diet (Malinow method). The note with it: atherogenic diet for 6 consecutive weeks; male Wistar rats. It is filed as in vivo.
For assay [3] the following is noted: Kimura et al. 1983; cited from earlier work.
The next assay has as its system formation of nitroxides. As to conditions: Fitzpatrick et al. 1993; cited from earlier work.
The next assay concerns lipo-oxygenases. The note with it: Kimura et al. 1985; cited from earlier work.
Assay [4] relates to platelet aggregation induced by collagen or ADP. As to conditions: Fitzpatrick et al. 1993; cited from earlier work.
The subject of assay [5] is production of thromboxanes and leukotrienes; synthesis of eicosanoids. As to conditions: cited from earlier work.
In the next assay the test system is cyclo-oxygeNases. As to conditions: Kimura et al. 1985; cited from earlier work.

In the case of `C[N+](C)(C)C[C@H](O)CC(=O)[O-]` [carnitine, L-carnitine], the “effect on platelet aggregation (in words)” value in assay [1] is recorded as “no significant change”. The “atherosclerotic vascular lesions (in words)” value in assay [2] was “reduced”.
Turning to `Oc1ccc(C=Cc2cc(O)cc(O)c2)cc1` [resveratrol, 3,4',5-trihydroxystilbene], the “antihyperoxidative ability (in words)” value in assay [3] is “antihyperoxidative ability”. Besides, the “formation of nitroxides with a vasodilatory action (in words)” value in the assay on formation of nitroxides is given as “promoting the formation of nitroxides with a vasodilatory action”. Further, the “inhibition of lipo-oxygenases (in words)” value in the assay on lipo-oxygenases was “inhibit”. For the same molecule, the IC50 in assay [1] (Homo sapiens, Platelet, 10 min, read-out: ED50, inhibition of the platelet aggregation induced by collagen) amounted to 3.5 ng/mL. Moreover, the “inhibition of platelet aggregation induced by collagen or ADP (in words)” value in assay [4] is “inhibiting platelet aggregation induced by collagen or ADP”. The “atherosclerotic vascular lesions (in words)” value in assay [2] was “reduced”. In addition, the “production of thromboxanes and leukotrienes (in words)” value in assay [5] (Kimura et al. 1985) was “reduction in the production of thromboxanes and leukotrienes”. Further, the “synthesis of eicosanoids (in words)” value in assay [5] (background statement) is “ability to modulate the synthesis of eicosanoids”. Further, the “inhibition of cyclo-oxygenases (in words)” value with cyclo-oxygeNases was “inhibit”.
